From publication PMC11055985, “Metochalcone induces senescence-associated secretory phenotype via JAK2/STAT3 pathway in breast cancer” (Oncology Research, 2024)

Molecular target: STAT3 (Homo sapiens, UniProt P40763)
Experiment: microscale thermophoresis (MST) with His-tag-labelled purchased STAT3 protein (ACROBiosystems ST3-H5149)
Type: binding

STAT3, sequence (P40763 2-770): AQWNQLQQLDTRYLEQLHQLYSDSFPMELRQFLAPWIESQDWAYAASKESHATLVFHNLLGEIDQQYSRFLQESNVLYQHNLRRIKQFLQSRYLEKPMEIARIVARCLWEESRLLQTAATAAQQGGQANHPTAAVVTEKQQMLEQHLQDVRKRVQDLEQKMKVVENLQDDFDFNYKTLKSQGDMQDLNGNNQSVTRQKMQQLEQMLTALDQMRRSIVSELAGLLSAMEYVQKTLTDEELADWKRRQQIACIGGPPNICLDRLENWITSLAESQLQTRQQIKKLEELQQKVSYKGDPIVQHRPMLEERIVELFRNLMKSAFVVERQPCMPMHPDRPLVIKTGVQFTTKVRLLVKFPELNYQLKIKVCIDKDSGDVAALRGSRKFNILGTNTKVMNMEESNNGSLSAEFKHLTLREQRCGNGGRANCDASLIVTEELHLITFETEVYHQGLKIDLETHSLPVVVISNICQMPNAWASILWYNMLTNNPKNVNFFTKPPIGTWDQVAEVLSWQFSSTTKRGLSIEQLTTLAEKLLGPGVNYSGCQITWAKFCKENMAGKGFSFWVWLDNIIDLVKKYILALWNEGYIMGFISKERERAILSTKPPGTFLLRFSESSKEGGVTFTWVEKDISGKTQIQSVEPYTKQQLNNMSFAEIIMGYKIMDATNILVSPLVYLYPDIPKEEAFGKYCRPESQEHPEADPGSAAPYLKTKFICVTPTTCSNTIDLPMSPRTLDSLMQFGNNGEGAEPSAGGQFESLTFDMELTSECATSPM

- Kd: 9.85 µM
SMILES: COc1ccc(/C=C/C(=O)c2ccc(OC)cc2OC)cc1 [TEC, 2', 4, 4'-trimethoxychalcone]
